Measurements: the OligoGym collection
After the bases stand the sugars from the 5' end (letter, count) and the backbone: PS all phosphorothioate, else s phosphorothioate and o phosphodiester by linkage. Methylation of C is not given here. e = 2'-O-(2-methoxyethyl) (MOE); l = locked nucleic acid (LNA); k = constrained ethyl (cEt); d = 2'-deoxy (DNA)

What was measured:
[1] = biological target: SNHG14; conditions: ASO, Human Neuronal Cell
[2] = biological target: SOD1; conditions: ASO

Sequence “AGATCATTCTCAACAATTA (sugars ldddlddddddddlldlll, PS)” has a target mRNA inhibition ([1]; 7.5 µM) of 63%.
Work on “AGATCATTCTCAACAATTA (sugars ldlddldddddddddllll, PS)” yielded a target mRNA inhibition ([1]; 7.5 µM) of 50%.
“AGCAACATTATTAACCAC (sugars l1 d3 l1 d7 l6, PS)” showed a target mRNA inhibition ([1]; 7.5 µM) of 41%.
“AGCAACATTATTAACCAC (sugars l3 d9 l3 d1 l2, PS)” showed a target mRNA inhibition ([1]; 7.5 µM) of 27%.
Work on “AGCAACATTATTAACCAC (sugars l5 d7 l1 d3 l2, PS)” yielded a target mRNA inhibition ([1]; 7.5 µM) of 47%.
For “AGCAACATTATTAACCAC (sugars lddlddddddddldllll, PS)”, the target mRNA inhibition ([1]; 7.5 µM) was 47%.
Work on “AGCAACATTATTAACCACC (sugars ldddddddddddldlddll, PS)” yielded a target mRNA inhibition ([1]; 7.5 µM) of 26%.
For “AGCAACATTATTAACCACC (sugars lddldddddddddlldlll, PS)”, the target mRNA inhibition ([1]; 7.5 µM) was 50%.
AGCATCATATAAACCT (sugars l3 d10 l3, PS) gave a target mRNA inhibition ([1]; 0.2 µM) of 34% and a target mRNA inhibition ([1]; 1 µM) of 26%.
Sequence AGCATTCAACCCTAAT (sugars l4 d10 l2, PS) has a target mRNA inhibition ([1]; 0.2 µM) of 52% and a target mRNA inhibition ([1]; 1 µM) of 60%.
AGCTCTAAACCTTCAA (sugars l3 d10 l3, PS) was tested, and the target mRNA inhibition ([1]; 0.2 µM) was 40% and the target mRNA inhibition ([1]; 1 µM) was 12%.
With AGCTTACCAAATATTC (sugars l4 d10 l2, PS) the target mRNA inhibition ([1]; 0.2 µM) was 17% and the target mRNA inhibition ([1]; 1 µM) was 23%.
For “AGCTTTTAACCAGAGTG (sugars l2 d11 l4, PS)”, the target mRNA inhibition ([1]; 7.5 µM) was 78%.
For “AGTCCTTCCTTTAACCA (sugars l2 d13 l2, PS)”, the target mRNA inhibition ([1]; 0.2 µM) was 21% and the target mRNA inhibition ([1]; 1 µM) was 41%.
“AGTTCTACTATACTTTC (sugars l3 d1 l1 d10 l2, PS)” showed a target mRNA inhibition ([1]; 7.5 µM) of 64%.
With “AGTTCTACTATACTTTC (sugars l3 d10 l1 d1 l2, PS)” the target mRNA inhibition ([1]; 7.5 µM) was 59%.
“AGTTCTACTATACTTTC (sugars l4 d11 l2, PS)” showed a target mRNA inhibition ([1]; 0.2 µM) of 50% and a target mRNA inhibition ([1]; 1 µM) of 57%.
“AGTTCTACTATACTTTC (sugars ldlldddddddldllll, PS)” gave a target mRNA inhibition ([1]; 7.5 µM) of 30%.
“AGTTCTACTATACTTTCC (sugars l1 d1 l1 d13 l2, PS)” was tested, and the target mRNA inhibition ([1]; 7.5 µM) was 40%.
Sequence “AGTTCTACTATACTTTCC (sugars l1 d12 l1 d2 l2, PS)” has a target mRNA inhibition ([1]; 7.5 µM) of 52%.
In the case of “AGTTCTACTATACTTTCC (sugars l2 d14 l2, PS)”, the target mRNA inhibition ([1]; 7.5 µM) is reported as 14%.
“AGTTCTACTATACTTTCC (sugars lddddldddddddlddll, PS)” gave a target mRNA inhibition ([1]; 7.5 µM) of 60%.
“ATATTGATTCAATTCCC (sugars l2 d1 l1 d10 l3, PS)” gave a target mRNA inhibition ([1]; 7.5 µM) of 65%.
For “ATATTGATTCAATTCCC (sugars l2 d2 l1 d9 l3, PS)”, the target mRNA inhibition ([1]; 7.5 µM) was 75%.
Sequence “ATATTGATTCAATTCCC (sugars ldddlddddddllddll, PS)” has a target mRNA inhibition ([1]; 7.5 µM) of 62%.
“ATATTGATTCAATTCCC (sugars lddllddddddlddlll, PS)” gave a target mRNA inhibition ([1]; 7.5 µM) of 62%.
In the case of “ATATTGATTCAATTCCC (sugars lldddddddddldldll, PS)”, the target mRNA inhibition ([1]; 7.5 µM) is reported as 60%.
Sequence ATATTTGTCACCTAAC (sugars l4 d10 l2, PS) has a target mRNA inhibition ([1]; 0.2 µM) of 33% and a target mRNA inhibition ([1]; 1 µM) of 32%.
“ATCATTCTCAACAATTA (sugars l1 d1 l3 d6 l6, PS)” gave a target mRNA inhibition ([1]; 7.5 µM) of -24%.
ATCATTCTCAACAATTA (sugars l4 d7 l6, PS) was tested, and the target mRNA inhibition ([1]; 7.5 µM) was 17%.
“ATCATTCTCAACAATTA (sugars l5 d6 l2 d2 l2, PS)” showed a target mRNA inhibition ([1]; 7.5 µM) of 31%.
In the case of “ATCATTCTCAACAATTA (sugars l5 d7 l1 d1 l3, PS)”, the target mRNA inhibition ([1]; 7.5 µM) is reported as 54%.
In the case of “ATCATTCTCAACAATTAA (sugars l5 d8 l5, PS)”, the target mRNA inhibition ([1]; 7.5 µM) is reported as 48%.
Work on ATCCCTTTGTAATCAT (sugars l4 d10 l2, PS) yielded a target mRNA inhibition ([1]; 0.2 µM) of 33% and a target mRNA inhibition ([1]; 1 µM) of 28%.
“ATCTCATGACCACCTAA (sugars ldldddddddddlldll, PS)” showed a target mRNA inhibition ([1]; 7.5 µM) of 51%.
ATCTGCTACATATTCT (sugars l4 d10 l2, PS) was tested, and the target mRNA inhibition ([1]; 0.2 µM) was 41% and the target mRNA inhibition ([1]; 1 µM) was 61%.
“ATCTGCTACATATTCTT (sugars l4 d11 l2, PS)” showed a target mRNA inhibition ([1]; 0.2 µM) of 50% and a target mRNA inhibition ([1]; 1 µM) of 59%.
In the case of “ATCTTTCCATTTATTTCCAT (sugars ldddddlddddddlddddll, PS)”, the target mRNA inhibition ([1]; 7.5 µM) is reported as 41%.
In the case of “ATCTTTCCATTTATTTCCAT (sugars ldddldldddddddldddll, PS)”, the target mRNA inhibition ([1]; 7.5 µM) is reported as 30%.
Sequence ATTCTTACCGTCTTTA (sugars l4 d10 l2, PS) has a target mRNA inhibition ([1]; 0.2 µM) of 49% and a target mRNA inhibition ([1]; 1 µM) of 60%.
Sequence “TTTATTGGGCGATCCCA (sugars e2 k2 d8 k2 e3, PS)” has a target mRNA inhibition ([2]; HepG2, 4 µM) of 34%.
Work on “TTTCCTTCTGCTCGAAA (sugars e3 k2 d7 k2 e3, PS)” yielded a target mRNA inhibition ([2]; HepG2, 3 µM) of 6%.
With “TTTCTACAGCTAGCAGG (sugars e2 k2 d9 k2 e2, PS)” the target mRNA inhibition ([2]; HepG2, 0.1875 µM) was 26%, the target mRNA inhibition ([2]; HepG2, 0.75 µM) was 68% and the target mRNA inhibition ([2]; HepG2, 3 µM) was 89%. It also gave a target mRNA inhibition ([2]; HepG2, 4 µM) of 84% and a target mRNA inhibition ([2]; HepG2, 12 µM) of 95%.
With “TTTCTCACTACAGGTAC (sugars e2 k2 d9 k2 e2, PS)” the target mRNA inhibition ([2]; HepG2, 5 µM) was 45%.
“TTTTAAGATTACAGTGTTTA (sugars e5 d10 e5, PS)” was tested, and the target mRNA inhibition ([2]; HepG2, 5 µM) was 13%.
In the case of “TTTTATTCACAGGCTTG (sugars e2 k2 d9 k2 e2, PS)”, the target mRNA inhibition ([2]; HepG2, 5 µM) is reported as 48%.
